The source of these data is patent publication US20220003750A1, “FUNCTIONAL SCREEN FOR SMALL MOLECULE AND MONOCLONAL ANTIBODY DRUG SENSITIVITY IN MULTIPLE MYELOMA PATIENTS” (The Regents of the University of Colorado, a body corporate, priority 2018, published 2022).

Series [1] deals with non-plasma cells (NPCs) negative for CD138 and CD38. Particulars: 48 h; for viability of nonplasma cells (NPCs) in the cultures: patient samples (FIG. 2A, 7E). The procedure:
(§1) De-identified primary myeloma samples were thawed and incubated with 100 μg DNase I (Sigma-Aldrich). Samples were washed twice with 10 mL Dulbecco's Phosphate Buffered Saline (DPBS) without calcium and magnesium. Cells were resuspended in RPMI1640 medium containing L-glutamine with 10% FBS and 100 U/mL penicillin and 100 μg/mL streptomycin (Thermo Fisher Scientific) and 2 ng/mL IL-6 (PeproTech) at 37° C. for 2 hours. Cells were then transferred to 96-well plates at 4.5×10^5 cells/mL (90,000 MNCs per well) and drug treated for 48 hours. PIs, IMiDs and Dex were purchased from Thermo Fisher. […] Stock drug solutions were prepared at 10 mM in DMSO and stored at −20° C. until use. Dara was obtained from University of Colorado Health Pharmacy. Clodronate-liposomes were purchased from Encapsula Nanosciences to block macrophage activity.
After 48-hour treatment primary samples were washed in 1× cold DPBS and re-suspended in BD Brilliant Stain Buffer (BD Biosciences) in a 96-well v-bottom plate. Cells were treated with FcR Blocking Reagent (Miltenyi Biotec) for 5 minutes and then surface stained with the antibodies anti-CD19-BV786, anti-CD45-BV510, monoclonal anti-CD38-BV421 or multi-epitope anti-CD38-FITC (ALPCO), anti-CD138-BV421 and anti-CD319-APC or anti-CD46 conjugated to Alexa647 with the Antibody Labeling Kit (In Vitrogen). Intracellular staining with anti-kappa-BV605 and anti-lambda-PE light chains was performed after paraformaldehyde fixation and permeabilization. All antibodies were purchased from BD Biosciences, except as noted. After staining, samples were washed with 100 μl DPBS containing 2% FBS (FACS buffer) and re-suspended in 250 μL. Viability staining was done using the LIVE/DEAD Fixable Near-IR Kit (Invitrogen, Carlsbad Calif.). Flow cytometry data was collected using a FACSCelesta (BD) equipped with a high throughput sampler (FITS). For each well a fixed volume of 175 μL was collected by the HTS. Data analysis was completed using FlowJo software. […]

In series [2] the test system is primary MM cells in patient bone marrow aspirate MNC cultures. Description: Myeloma drug sensitivity testing (My-DST): ex vivo 48 h culture of patient bone marrow MNCs, flow cytometry of surviving MM cells.
From the text: Extra bone marrow aspirate was collected from patients at University of Colorado Blood Cancer and Bone Marrow Transplant Program after informed consent. Samples from patients with multiple myeloma or smoldering myeloma were obtained from the hematologic malignancies tissue bank with protocol approval from the Western Institutional Review Board. MNCs were isolated from the samples using SepMate Ficoll-Plaque tubes (StemCell Technologies). Normal donor samples were purchased from AllCells. Selection of CD138^+ cells was performed with magnetic bead columns (Miltenyi), only where specifically noted.
as §1
After 48-hour treatment primary samples were washed in 1× cold DPBS and re-suspended in BD Brilliant Stain Buffer (BD Biosciences) in a 96-well v-bottom plate. Cells were treated with FcR Blocking Reagent (Miltenyi Biotec) for 5 minutes and then surface stained with the antibodies anti-CD19-BV786, anti-CD45-BV510, monoclonal anti-CD38-BV421 or multi-epitope anti-CD38-FITC (ALPCO), anti-CD138-BV421 and anti-CD319-APC or anti-CD46 conjugated to Alexa647 with the Antibody Labeling Kit (In Vitrogen). Intracellular staining with anti-kappa-BV605 and anti-lambda-PE light chains was performed after paraformaldehyde fixation and permeabilization. All antibodies were purchased from BD Biosciences, except as noted. After staining, samples were washed with 100 μl DPBS containing 2% FBS (FACS buffer) and re-suspended in 250 μL. Viability staining was done using the LIVE/DEAD Fixable Near-IR Kit (Invitrogen, Carlsbad Calif.). Flow cytometry data was collected using a FACSCelesta (BD) equipped with a high throughput sampler (FITS). For each well a fixed volume of 175 μL was collected by the HTS. Data analysis was completed using FlowJo software.
To profile response to the agents commonly used in clinic, patient samples were initially screened with a panel including bortezomib (Bor), carfilzomib (Car), lenalidomide (Len), pomalidomide (Pom), Dex and Cy (tested as its active metabolite “4-HC”). MNCs are cultured for 48 hours, followed by flow cytometry to measure the surviving MM cell population. To accurately measure the MM cells on a sample-by-sample basis, cells were labeled for surface expression of CD138, CD38, CD45, CD19, CD319 and CD46. […] In parallel, intracellular flow cytometry for kappa and lambda was used to verify the clonality and individualize the MM population gating (FIG. 1F).
For rapid screening, single concentrations of each drug were sought that produce an expected decrease in MM cell viability by which to judge sensitivity versus resistance. This was started by establishing the dose response to each drug under the above conditions. Each condition was performed in triplicate and normalized compared to untreated control.
In general terms: Flow cytometry measures light scatter and fluorescence of single cells or particles in a stream.

For series [3], the system named is nonmalignant plasma cells from normal donor bone marrow. Description: My-DST quality control: normal donor bone marrow aspirates, nonmalignant plasma cells. It counts as cell-based, human. Particulars: 48 h (FIG. 2B, 7F). The source says: Normal donor samples were purchased from AllCells.
PIs, IMiDs and Dex were purchased from Thermo Fisher. […] Dara was obtained from University of Colorado Health Pharmacy.
Data analysis was completed using FlowJo software.

Setting [4] is: patient 614, with progression of disease (FIG. 5D).

With `O=P1(N(CCCl)CCCl)NCCCO1` (stereo not shown) [C, cyclophosphamide], the “nonspecific cytotoxicity on the bulk MNC population (FIG. 1G)” value in series [1] is reported as “sometimes showed nonspecific cytotoxicity”. Further, the “viability of nonplasma cells (NPCs) in the cultures” value in series [1] is given as “occasional exception”. Moreover, the “viability of MM cells compared to untreated controls (FIG. 1G)” value in series [2] (48 h, representative patient sample) is “reduced viable MM cells”. For the same molecule, the “EV sensitivity in samples from patients with prior clinical exposure versus naïve” value in series [2] (FIGS. 8C-8F) is on record as “unchanged”. For the same molecule, the “change of ex vivo drug sensitivity between biopsies at multiple time points” value (from here on “change”) in series [2] (patient 634, multiple relapse time points (FIG. 5E)) is “remained IMiD and cyclophosphamide resistant”; in series [2] (patient 646 (FIG. 5F)) it was “surprising re-sensitization”; in series [2] (patient 700 (FIG. 5C)) it was “increased sensitivity”.

Regarding `CC(C)C[C@H](NC(=O)[C@H](CCc1ccccc1)NC(=O)CN1CCOCC1)C(=O)N[C@@H](Cc1ccccc1)C(=O)N[C@@H](CC(C)C)C(=O)[C@@]1(C)CO1` [Car, carfilzomib], in series [2] (setting [4]), the “change” value is on record as “significantly increased drug resistance”.

For `Nc1cccc2c1CN(C1CCC(=O)NC1=O)C2=O` (stereo not shown) [R, lenalidomide], the “change” value in series [2] (setting [4]) and in series [2] (patient 700 (FIG. 5C)) was “significantly increased drug resistance” throughout.

`CC(C)C[C@H](NC(=O)[C@H](Cc1ccccc1)NC(=O)c1cnccn1)B(O)O` [V, bortezomib]: the “change” value in series [2] (patient 646 (FIG. 5F)) is reported as “lost isolated bortezomib sensitivity”.

With “IL-6: interleukin-6, cytokine added to the culture, 2 ng/mL”, in series [2] (ex vivo supplementation of culture), the “MM cell viability loss in culture on IL-6 addition (FIG. 1B)” value is reported as “attenuated MM cell viability loss in culture for some patient samples”.

Regarding daratumumab, the “viability of nonplasma cells (NPCs) in the cultures” value in series [1] was “did not affect the viability”. Also, the “ex vivo response in samples from patients who had recently received Dara” value in series [2] (20 nM, Dara-exposed patients (FIG. 6C)) was “ex vivo resistance was evident”. Further, the “ex vivo activity, newly diagnosed versus relapsed samples” value in series [2] (20 nM, Dara-naïve patients (FIG. 6C)) is recorded as “very similar activity”. For the same molecule, in series [2] (20 nM, P=0.003 (FIG. 6D)), the “ex vivo sensitivity in naïve patients compared to those with prior exposure” value was “significantly lower”. In series [2] (3/3 Dara-sensitive samples (FIG. 7D)), the “ex vivo activity after addition of clodronate-containing liposomes (macrophage deactivation)” value is recorded as “partially blocked”. Moreover, the “dose response of viable MM cells (FIG. 6A)” value in series [2] (48 hours ex vivo culture) was “dose dependent reduction in viable MM cells”. Moreover, the “viability of plasma cells from BM aspirates from normal donors” value in series [3] is recorded as “did not substantially reduce viability”.
